Literature values in patent US20140088140A1 (TEVA PHARMACEUTICAL INDUSTRIES, LTD., priority 2012, published 2014).

How the values were obtained:
[1] = tested on: genes related to antigen presentation and corresponding inflammatory pathways; settings: mainly via the NFkB pathway
[2] = in vivo
[3] = tested on: Th1 / Th2 T helper cells; settings: animal studies
[4] = tested on: Multiple Sclerosis; settings: two phase III trials
[5] = tested on: patients with HD
[6] = tested on: Huntington's disease patients; settings: 45 mg or 90 mg daily for 6 months

SMILES | expression of genes related to antigen presentation and inflammatory pathways [1] | oral bioavailability [2] | Th1 to Th2 shift [3] | safety and tolerability profile [4] | symptomatic relief incl. hand movements, gait and balance [5] | tertiary endpoint UHDRS-TMS (changes in motor function) and individual mMS items (gait, dysarthria) [6]
CCN(C(=O)c1c(O)c2c(Cl)cccc2n(C)c1=O)c1ccccc1 [laquinimod] | induced suppression | high oral bioavailability | shift with an anti-inflammatory profile | favorable safety and tolerability profile | – | –
CCCN1CCC(c2cccc(S(C)(=O)=O)c2)CC1 [pridopidine, 4-[3-(methylsulfonyl)phenyl]-1-propyl-piperidine] | – | – | – | – | significant symptomatic relief | statistically significant effect of treatment
